Data taken from US20180078615A1, “USE OF CCL2 TO INHIBIT ABNORMAL UTERINE BLEEDING” (UNIVERSITY OF SOUTH FLORIDA, priority 2015, published 2018).

Key:
VSMCs [1] = test: Whole genome microarray analysis (Illumina HumanHT-12 v4) of cultured VSMCs treated with progestins; assay type: cell-based, human; conditions: VSMCs treated by MPA
Excerpt: Cultured VSMCs (n=3) treated with control medium or medium containing medroxyprogesterone acetate (MPA, 10^−7 M), or etonogestrel (ETO, 10^−7 M) were processed for whole genome analyses using Illumina Human microarray kit. After qRT-PCR confirmation of several up and down regulated genes from microarray data, Ingenuity Pathway Analysis (IPA) determined relevant upstream signaling of LAPC altered gene expression. To investigate the role of genes and relevant signaling molecules identified by IPA, VSMCs (n=3) treated with MPA or ETO±1 or 10 ng/ml recombinant CCL2 (rCCL2)±STAT1 inhibitor, 5′-methyl-thioadenosine (MTA, 100 μM) were analyzed by BrdU incorporation proliferation, TUNEL based ELISA apoptosis and Transwell insert migration assays.
VSMCs were thawed and cultured in medium 231 (M231; Life Technologies) with smooth muscle growth supplement (5% FBS; 2 ng/mL human basic fibroblast growth factor, 0.5 ng/mL human epidermal growth factor, 5 ng/mL heparin, 0.2 μg/mL insulin and 5 μg/mL BSA; Life Technologies) with 100 U/mL penicillin, 100 μg/mL streptomycin, 0.25 μg/mL fungizone. Confluent VSMCs were washed twice with 1×PBS to remove residual serum, passaged in 96-well or 6-well plates and incubated in parallel in M231 with 1% charcoal striped FBS with 0.1% ethanol (vehicle, control) or 10^−7 M MPA (Sigma-Aldrich) or 10^−7 M ETO (Organon) or 10^−7 M P4 (Sigma-Aldrich) for 15 min, 6, 48, and 72 h. VSMCs were then washed with ice-cold PBS and stored at −80° C. for further RNA and protein analyses.
Total RNA was isolated using Qiagen miRNeasy Mini Kit (Qiagen) and RNeasy MinElute Cleanup Kit (Qiagen). The quality of isolated RNAs was confirmed using an Agilent 2100 Bioanalyzer. Microarray analysis was limited to those specimens in which RNA Integrity Number exceeded 8. Microarray processes were performed in the Keck Biotechnology Resource Laboratory at Yale University (New Haven, Conn.) using Illumina Human HT-12 v4 BeadChip (Illumina). Raw data without normalization were analyzed by GeneSpring GX12.5 software (Agilent Technologies-Silicon Genetics). Normalization was performed as described (35). Genes with a fold-change >1.25 and a P value<0.05 were considered differentially expressed. Ingenuity Pathway Analysis (IPA) software (Qiagen) explored molecular and biological networks related to differentially expressed genes.

VSMCs [2] = test: Transwell insert migration assay; assay type: cell-based, human; conditions: 12-h incubation, 10^−7 M; control 48.4%
Protocol: VSMCs (75,000 cells/200 μL) were suspended in M231 containing 1% charcoal striped FBS and either 0.1% ethanol (vehicle control) or the corresponding steroids and seeded onto insert wells (transwell filter with 12-μm pores; EMD Millipore). The inserts were then placed in 24-well plates containing 500 μL M231 with 1% charcoal striped FBS. After 12 h, cells remaining on the upper surface of the filter were removed with a cotton swab. Migrated cells were trypsinized, centrifuged, and resuspended in 200 μL of M231 medium. The cell suspensions were mixed with 200 μL 10% ethanol containing 0.4% Trypan blue dye and the live cell number was counted by Countess Automated Cell Counter (Invitrogen). See further details in SI Materials and Methods.
Cultured VSMCs were grown in T-75 cell culture flasks in M231 (Life Technologies) with smooth muscle growth supplement (Life Technologies) with 100 U/mL penicillin, 100 μg/mL streptomycin, 0.25 μg/mL fungizone. Confluent VSMCs were washed twice with 1×PBS to remove residual serum, and then trypsinized, resuspended (75,000 cells per 200 μL per well) in M231 with 1% charcoal striped FBS with 0.1% ethanol (vehicle, control), 10^−7 M MPA (Sigma-Aldrich), 10^−7 M ETO (Organon), or 10^−7 M P4 (Sigma-Aldrich)±rCCL2 (R&D Systems) and seeded on insert wells (transwell filter with 12-μm pores; EMD Millipore), which were then placed in 24-well plates containing 500 μL M231 with 1% charcoal striped FBS. After 12 h, cells remaining on the upper surface of the filter were removed with a cotton swab. Migrated cells attached to the lower surface of each insert or to the surface of lower wells were collected by trypsinization, followed by centrifugation and resuspension in 200 μL of M231 medium. The cell suspensions were mixed with 200 μL 10% ethanol containing 0.4% Trypan blue dye (selectively stains only dead cells blue, whereas live cells with intact cell membranes remain unstained) for 5 min. A mixture of 100 μL M231 and 100 μL 10% ethanol containing 0.4% Trypan blue dye was used as a negative control. To detect live cell numbers, 10 μL of final cell/Trypan blue dye suspension from each treatment condition was pipetted into Countess Cell Counting Chamber Slide and counted by using Countess Automated Cell Counter (Invitrogen). The counting procedure was performed in duplicate.

## CC(=O)O[C@]1(C(C)=O)CC[C@H]2[C@@H]3C[C@H](C)C4=CC(=O)CC[C@]4(C)[C@H]3CC[C@@]21C [MPA, medroxyprogesterone acetate]
VSMCs [1]
  Fold-change, ABI gene family, member 3 (NESH) binding protein (ABI3BP): −2.045
  Fold-change, Actin, γ 2, smooth muscle, enteric (ACTG2): 2.761
  Fold-change, Alcohol dehydrogenase 1A (class I), α polypeptide (ADH1A): 2.49
  Fold-change, Bradykinin receptor B1 (BDKRB1): −2.041
  Fold-change, Chemokine (C-C motif) ligand 2 (CCL2): −4.123
  Fold-change, Collectin subfamily member 12 (COLEC12): −2.177
  Fold-change, Complement factor B (CFB): −3.17
  Fold-change, Complement factor D (adipsin) (CFD): 2.794
  Fold-change, Cysteine-rich secretory protein LCCL domain containing 2, (CRISPLD2): 3.721
  Fold-change, DNA-damage regulated autophagy modulator 1 (DRAM1): −2.149
  Fold-change, Decorin, transcript variant A2 (DiCN): 2.515
  Fold-change, EF-hand domain family, member D1 (EFHD1): 2.294
  Fold-change, Fibrillin 2 (FBN2): 2.642
  Fold-change, Filaggrin (FLG): −2.306
  Fold-change, Glutathione peroxidase 3 (plasma) (GPX3): 2.827
  Fold-change, H19, imprinted maternally expressed transcript noncoding RNA (H19): 5.441
  Fold-change, Hypothetical protein FLJ40504 (FLJ40504): −2.331
  Fold-change, Indolethylamine N-methyltransferase (INMT): 2.187
  Fold-change, Insulin-like growth factor binding protein 2, 36 kDa (IGFBP2): 2.367
  Fold-change, Interleukin 1, β (IL1B): −2.325
  Fold-change, LY6/PLAUR domain containing 1, transcript variant 1 (LYPD1): −2.21
  Fold-change, Latexin (LXN): −2.939
  Fold-change, Leptin (obesity homolog, mouse) (LEP): 4.042
  Fold-change, Matrix Gla protein, transcript variant 1 (MGP): 3.615
  Fold-change, Matrix Gla protein, transcript variant 2 (MGP): 3.221
  Fold-change, Natriuretic peptide precursor B (NPPB): −2.371
  Fold-change, PREDICTED: keratin 18 pseudogene 13 (KRT18P13): −2.209
  Fold-change, PREDICTED: similar to LYPDC1 protein (LOC100134073): −2.401
  Fold-change, Pleckstrin homology-like domain, family A, member 1 (PHLDA1): −2.17
  Fold-change, Potassium voltage-gated channel, shaker-related subfamily, 0 member 1, transcript variant2 (KCNAB1): −2.055
  Fold-change, Prostaglandin-endoperoxide synthase 1, transcript variant 2 (PTGS1): 2.437
  Fold-change, Retinoic acid receptor responder (tazarotene induced) 1, transcript variant 1, (RARRES1): −4.061
  Fold-change, Retinoic acid receptor responder (tazarotene induced) 1, transcript variant 2, (RARRES1): −2.994
  Fold-change, Superoxide dismutase 2, mitochondrial, transcript variant 2, (SOD2): −2.208
  Fold-change, Sushi domain containing 2 (SUSD2): 2.901
  Fold-change, Transmembrane protein 119 (TMEM119): 2.258
  Fold-change, UDP-N-acetyl-alpha-D-galactosamine:polypeptide N-acetylgalactosaminyltransferase 12 (GALNT12): −2
  Fold-change, Wingless-type MMTV integration site family, member 5A (WNT5A): 2.218
VSMCs [1]; table entry 11
  Fold-change, Collagen, type VIII, α 1, transcript variant 2 (COL8A1): 2.628
VSMCs [1]; table entry 14
  Fold-change, Collagen, type VIII, alpha 1, transcript variant 2 (COL8A1): 2.439
VSMCs [2]
  migration rate: 18.7%
